≈ marks a conversion by molar mass, not a printed value.
Tested on: P388
Test: Cytotoxicity against mouse P388 cells
Assay type: functional
Settings: read-out: ED50 (the source's name)

CCCCCCCCCC(C)/C=C/CC(=O)NCCCN(C)CCCCN(C)C (stereo unspecified)
EC50: 0.04 µg/mL (≈ 0.0976 µM)

— ChEMBL document CHEMBL1146390, “Cytotoxic acylated Spermidine from a soft coral, Sinularia sp” (1997)
